Experiment: mn = molality of the nth substance listed, in mol/kg
Settings: 100 kPa, Liquid; for viscosity: Falling or rolling sphere viscometry; for mass density: Vibrating tube method

O=S(=O)([O-])[O-].[O]=[V+2] [oxovanadium(IV) sulfate] + O
Settings | mass density, 293.15 K [kg/m3] | mass density, 303.15 K [kg/m3] | viscosity, 283.15 K [mPa·s] | viscosity, 288.15 K [mPa·s] | viscosity, 293.15 K [mPa·s] | viscosity, 298.15 K [mPa·s] | viscosity, 303.15 K [mPa·s] | viscosity, 308.15 K [mPa·s] | viscosity, 313.15 K [mPa·s] | viscosity, 318.15 K [mPa·s]
m1 = 0.2501 | 1034.67 | 1031.66 | 1.551 | 1.347 | 1.183 | 1.049 | 0.9378 | 0.8442 | 0.764 | 0.6958
m1 = 0.5 | 1069.8 | 1066.39 | 1.861 | 1.61 | 1.409 | 1.244 | 1.108 | 0.9929 | 0.897 | 0.8143
m1 = 0.7507 | 1104.11 | 1100.34 | 2.242 | 1.932 | 1.682 | 1.479 | 1.311 | 1.171 | 1.053 | 0.9528
m1 = 0.9964 | 1136.2 | 1132.1 | 2.697 | 2.312 | 2.005 | 1.755 | 1.55 | 1.379 | 1.235 | 1.113
m1 = 1.25 | 1169.5 | 1165.09 | 3.308 | 2.816 | 2.429 | 2.115 | 1.859 | 1.646 | 1.468 | 1.319
m1 = 1.5 | 1201.04 | 1196.42 | 4.052 | 3.427 | 2.936 | 2.543 | 2.223 | 1.959 | 1.74 | 1.556
m1 = 1.75 | 1231.58 | 1226.74 | 4.966 | 4.171 | 3.548 | 3.052 | 2.66 | 2.334 | 2.064 | 1.838
m1 = 2 | 1261.16 | 1256.15 | 6.108 | 5.092 | 4.304 | 3.679 | 3.18 | 2.783 | 2.445 | 2.168
m1 = 2.249 | 1289.97 | 1284.81 | 7.543 | 6.238 | 5.238 | 4.448 | 3.824 | 3.32 | 2.916 | 2.575
m1 = 2.499 | 1317.94 | 1312.66 | 9.273 | 7.615 | 6.348 | 5.359 | 4.58 | 3.953 | 3.446 | 3.029
m1 = 2.75 | 1345.06 | 1339.67 | 11.55 | 9.405 | 7.784 | 6.524 | 5.544 | 4.758 | 4.126 | 3.608
